What was measured:
[1] = target: T1, Prostaglandin G/H synthase 2 (Homo sapiens, UniProt P35354)
T1 sequence (P35354 whole entry): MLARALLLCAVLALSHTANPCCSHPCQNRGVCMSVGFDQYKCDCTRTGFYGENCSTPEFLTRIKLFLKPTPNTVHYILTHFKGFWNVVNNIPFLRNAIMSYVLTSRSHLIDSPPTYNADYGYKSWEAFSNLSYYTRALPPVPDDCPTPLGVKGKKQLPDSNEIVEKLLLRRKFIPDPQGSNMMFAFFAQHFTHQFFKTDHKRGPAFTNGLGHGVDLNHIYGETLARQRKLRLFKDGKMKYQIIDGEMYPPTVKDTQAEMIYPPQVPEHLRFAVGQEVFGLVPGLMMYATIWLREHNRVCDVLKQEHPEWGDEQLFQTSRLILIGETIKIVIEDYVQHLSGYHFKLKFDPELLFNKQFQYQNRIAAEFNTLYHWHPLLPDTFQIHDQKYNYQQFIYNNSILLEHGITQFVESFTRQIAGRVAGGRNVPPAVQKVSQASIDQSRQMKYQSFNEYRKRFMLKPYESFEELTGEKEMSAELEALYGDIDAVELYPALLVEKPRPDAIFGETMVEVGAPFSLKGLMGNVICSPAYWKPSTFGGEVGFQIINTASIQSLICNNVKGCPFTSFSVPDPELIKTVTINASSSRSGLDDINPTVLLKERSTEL
Description: Inhibition of Prostaglandin G/H synthase 2 was measured by the inhibition of PGE-2 produced by lipopolysaccharide-challenged HWB

[2] = target: T1, Prostaglandin G/H synthase 2; experiment: In vitro inhibition of PGE-2 produced by arachidonic acid-stimulated CHO cells stably expressing human Prostaglandin G/H synthase 2
[3] = target: Prostaglandin G/H synthase 1 (Homo sapiens, UniProt P23219); experiment: Inhibition of Prostaglandin G/H synthase 1 was measured by the inhibition of PGE-2 produced by microsomes from U937 cells at subsaturating arachidonic acid conc.; format: cell-based, U-937
Rattus norvegicus [4] = experiment: In vivo potency at 10 mg/kg in the rat paw edema assay; format: functional
[5] = Compound was evaluated for plasma concentration in rats when administered at 20 mg/kg in methocel at 2 hr; format: ADME, organism-based; parameters: dose 20 mg/kg; details: rat, read-out: Cmax
Rattus norvegicus [6] = experiment: Efficacy in rat paw edema assay upon oral administration.; format: functional
Rattus norvegicus [7] = experiment: Efficacy in rat pyresis assay upon oral administration; format: functional
[8] = Compound was evaluated for plasma concentration in rats when administered at 20 mg/kg in methocel at 0.5 hr; format: ADME, organism-based; parameters: dose 20 mg/kg; details: rat, read-out: Cmax
Rattus norvegicus [9] = experiment: In vivo potency at 20 mg/kg in the rat paw edema assay; format: functional
[10] = Compound was evaluated for plasma concentration in rats when administered at 20 mg/kg in methocel at 1 hr; format: ADME, organism-based; parameters: dose 20 mg/kg; details: rat, read-out: Cmax
Rattus norvegicus [11] = experiment: Compound was evaluated for efficacy in rat paw edema assay upon oral administration; format: functional
Rattus norvegicus [12] = experiment: In vivo inhibitory dose in adjuvant-induced arthritis in rats; format: functional
Rattus norvegicus [13] = experiment: In vivo inhibitory dose in carrageenan-induced hyperalgesia in rats; format: functional; details: read-out: ID50 (the source's name)

Prostaglandin G/H synthase 1, sequence (P23219 whole entry): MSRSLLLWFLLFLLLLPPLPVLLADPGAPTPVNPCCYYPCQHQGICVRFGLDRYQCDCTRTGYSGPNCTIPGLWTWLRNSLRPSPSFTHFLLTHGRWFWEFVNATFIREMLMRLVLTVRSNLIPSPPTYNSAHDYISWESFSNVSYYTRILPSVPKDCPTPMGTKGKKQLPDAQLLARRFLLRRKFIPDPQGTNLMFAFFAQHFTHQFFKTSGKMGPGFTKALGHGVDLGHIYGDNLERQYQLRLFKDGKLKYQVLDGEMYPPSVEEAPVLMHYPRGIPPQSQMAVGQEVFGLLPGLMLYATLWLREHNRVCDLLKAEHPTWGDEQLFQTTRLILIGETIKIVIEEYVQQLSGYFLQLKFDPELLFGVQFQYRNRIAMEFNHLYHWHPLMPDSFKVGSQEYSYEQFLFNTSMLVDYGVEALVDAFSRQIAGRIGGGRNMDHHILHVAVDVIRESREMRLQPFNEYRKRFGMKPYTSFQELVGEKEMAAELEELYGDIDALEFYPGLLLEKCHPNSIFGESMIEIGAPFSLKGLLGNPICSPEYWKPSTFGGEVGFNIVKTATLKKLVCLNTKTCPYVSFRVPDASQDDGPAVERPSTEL

Compound | IC50 [1] [nM] | IC50 [2] [nM] | IC50 [3] [nM] | ED50 (Rattus norvegicus [6]) [mg/kg] | ED50 (Rattus norvegicus [7]) [mg/kg] | further results
Cc1cnc(-c2cccnc2)c(-c2ccc(S(C)(=O)=O)cc2)c1 | 2100 | 350 | 59000 | – | – | –
CS(=O)(=O)c1ccc(-c2cccnc2-c2cccnc2)cc1 | > 33000 | 610 | > 100000 | – | – | –
COc1nc(-c2ccc(F)cc2)c(-c2ccc(S(C)(=O)=O)cc2)cc1C#N | – | – | – | – | – | inhibition in vivo at 10 mg/kg (Rattus norvegicus [4]): 16%
Cc1ccc(-c2ncc(Cl)cc2-c2ccc(S(N)(=O)=O)cc2)cn1 | 2400 | 23 | 800 | – | – | –
Cc1ccncc1-c1ncc(Cl)cc1-c1ccc(S(C)(=O)=O)cc1 | 2700 | 830 | > 100000 | – | – | –
CS(=O)(=O)c1ccc(-c2cc(C(F)(F)F)cnc2-c2cccnc2)cc1 | – | – | 31000 | 1.7 | 1.4 | concentration at 2 h [5]: 24 µM
CS(=O)(=O)c1ccc(-c2cc(Cl)cnc2-c2ccncc2)cc1 | – | – | 81000 | – | – | –
CS(=O)(=O)c1ccc(-c2cc(Cl)cnc2-c2cccnc2)cc1 | 900 | 34 | 19000 | 2.3 | 0.8 | concentration at 2 h [5]: 52 µM
CS(=O)(=O)c1ccc(-c2cc(Cl)cnc2-c2ccccn2)cc1 | 5800 | 68 | 63000 | – | – | –
CS(=O)(=O)c1ccc(-c2cc(Cl)cnc2-c2ccc(C3CC3)nc2)cc1 | – | 16 | 6000 | 2 | 4.9 | concentration at 2 h [5]: 9 µM
CCc1ccc(-c2ncc(Cl)cc2-c2ccc(S(C)(=O)=O)cc2)cn1 | – | – | 13000 | 1.6 | 2.6 | concentration at 0.5 h [8]: 9 µM
COc1cc(-c2ccc(S(C)(=O)=O)cc2)c(-c2ccc(F)cc2)c(C(F)(F)F)n1 | – | – | – | – | – | inhibition in vivo at 20 mg/kg (Rattus norvegicus [9]): 12%
CS(=O)(=O)c1ccc(-c2cccnc2-c2ccccc2)cc1 | – | – | 20000 | > 10 | – | concentration at 0.5 h [8]: 40 µM
Cc1cncc(-c2ncc(Cl)cc2-c2ccc(S(C)(=O)=O)cc2)c1 | 3800 | 87 | > 100000 | – | – | –
Cc1ncccc1-c1ncc(Cl)cc1-c1ccc(S(C)(=O)=O)cc1 | 2600 | 1330 | 45000 | – | – | –
CS(=O)(=O)c1ccc(-c2cc(Br)sc2-c2ccc(F)cc2)cc1 [DUP-697] | – | – | – | 1.3 | – | –
Cc1ccc(-c2ncc(Cl)cc2-c2ccc(S(C)(=O)=O)cc2)cn1 [ETORICOXIB] | – | – | 12000 | 0.6 | 0.5 | concentration at 1 h [10]: 30 µM
COc1ccc2c(c1)c(CC(=O)O)c(C)n2C(=O)c1ccc(Cl)cc1 [INDOMETHACIN] | – | – | – | – | 1.1 | ED50 (Rattus norvegicus [11]): 2 mg/kg; ID50 (Rattus norvegicus [12]): 0.2 mg kg-1 day-1 b.i.d.; ED50 (Rattus norvegicus [13]): 1.5 mg/kg
